Source: ChEMBL document CHEMBL3351857, “Synthesis and biological evaluation of 2,3'-diindolylmethanes as agonists of aryl hydrocarbon receptor” (Bioorg Med Chem Lett, 2014)

Experiments:
[1] = target: T1, Aryl hydrocarbon receptor (AhR) (Homo sapiens, UniProt P35869); assay: Activation of AhR in human HepG2 cells assessed as fluorescence after 24 hrs incubation at 10 nM by EROD assay relative to control; assay type: cell-based; details: read-out: FC
T1 sequence (P35869 whole entry): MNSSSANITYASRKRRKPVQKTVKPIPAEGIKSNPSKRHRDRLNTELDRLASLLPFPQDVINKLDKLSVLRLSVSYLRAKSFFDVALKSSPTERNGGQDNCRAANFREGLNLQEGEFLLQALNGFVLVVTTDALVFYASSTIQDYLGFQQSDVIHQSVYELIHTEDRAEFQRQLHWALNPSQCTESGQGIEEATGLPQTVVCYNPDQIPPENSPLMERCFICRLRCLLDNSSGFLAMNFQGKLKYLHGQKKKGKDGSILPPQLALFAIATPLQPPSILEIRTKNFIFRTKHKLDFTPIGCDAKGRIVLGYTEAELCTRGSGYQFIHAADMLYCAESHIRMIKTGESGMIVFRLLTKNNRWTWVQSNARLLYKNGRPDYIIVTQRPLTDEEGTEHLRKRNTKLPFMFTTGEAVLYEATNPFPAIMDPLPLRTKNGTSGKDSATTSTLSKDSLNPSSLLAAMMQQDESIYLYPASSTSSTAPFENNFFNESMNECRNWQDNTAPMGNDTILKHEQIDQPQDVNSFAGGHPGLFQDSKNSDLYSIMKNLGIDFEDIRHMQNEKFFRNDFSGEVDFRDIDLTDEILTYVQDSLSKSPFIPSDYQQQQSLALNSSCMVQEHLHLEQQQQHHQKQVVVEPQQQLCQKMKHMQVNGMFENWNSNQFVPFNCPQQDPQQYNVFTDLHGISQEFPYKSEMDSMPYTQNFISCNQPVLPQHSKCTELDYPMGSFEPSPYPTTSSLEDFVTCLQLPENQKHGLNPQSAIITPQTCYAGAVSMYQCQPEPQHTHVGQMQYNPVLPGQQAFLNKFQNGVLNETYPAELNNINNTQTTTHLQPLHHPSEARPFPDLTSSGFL

[2] = target: T2, Aryl hydrocarbon receptor (Homo sapiens, UniProt P35869); assay: Activation of AhR in human HepG2 cells assessed as fluorescence after 24 hrs incubation by EROD assay; assay type: cell-based
T2 sequence (P35869 whole entry): T1 sequence (P35869 whole entry)

Homo sapiens = species: Homo sapiens; assay: Half life in human; assay type: ADME, organism-based; details: in vivo

fold induction at 24 h, 0.01 µM [1] | SMILES | further results
5 | O=Cc1c(Cc2c[nH]c3ccc(Cl)cc23)[nH]c2ccccc12 | 
6 | Cn1cc(Cc2[nH]c3ccccc3c2C=O)c2ccccc21 | 
 | Clc1ccc2[nH]cc(Cc3cc4ccccc4[nH]3)c2c1 | EC50 [2]: > 6.7 µM
 | Clc1cc2c(cc1Cl)Oc1cc(Cl)c(Cl)cc1O2 [2,3,7,8-TETRACHLORODIBENZO-P-DIOXIN] | t1/2 (Homo sapiens): 7 yr
